Like-named read-outs stand apart in the source and are kept apart here.
Tested on: SARS-CoV-2 (USA-WA1/2020) in Calu-3 cells
Type: cell-based
[1] = high dose (10 µM), Calu-3, 48 h
[2] = low dose (100 nM), Calu-3, 48 h

Compound | dsRNA signal, AU High [1] [AU] | dsRNA signal, AU Low [2] [AU] | dsRNA signal, AU High | dsRNA signal, AU Low
O=C(O)C[C@H](O)C[C@H](O)/C=C/c1c(C2CC2)nc2ccccc2c1-c1ccc(F)cc1 [Pitavastatin Calcium] | 16024.1 | 23195.0 |  | 
O=C(O)C[C@H](O)C[C@H](O)/C=C/c1c(C2CC2)nc2ccccc2c1-c1ccc(F)cc1 [Pitavastatin] | 8150.8 | 10215.5 |  | 
CC1=CC(=O)C(C(C)C)=C/C1=N/OC(=O)c1ccccc1C [Poloxin] | 3268.7 | 59035.4 |  | 
C=CC(=O)N1CCC(Oc2cc3c(Nc4ccc(Cl)c(Cl)c4F)ncnc3cc2OC)CC1 [Poziotinib] | 19439.7 | 63934.7 |  | 
CC(C)[C@H](CO)Nc1nc(Nc2cccc(Cl)c2)c2ncn(C(C)C)c2n1 [Purvalanol A] | 51443.1 | 865.0 |  | 
CC(C)[C@H](CO)Nc1nc(Nc2ccc(C(=O)O)c(Cl)c2)c2ncn(C(C)C)c2n1 [Purvalanol B] | 4137.6 | 7805.6 |  | 
O=c1c(O)c(-c2ccc(O)c(O)c2)oc2cc(O)cc(O)c12 [Quercetin dihydrate] | 25411.6 | 6435.1 |  | 
CC(C)(C)c1cc(NC(=O)Nc2ccc(-c3cn4c(n3)sc3cc(OCCN5CCOCC5)ccc34)cc2)no1 [Quizartinib (AC220)] | 4499.9 | 17036.5 |  | 
COc1cc(Nc2ncc(F)c(Nc3ccc4c(n3)NC(=O)C(C)(C)O4)n2)cc(OC)c1OC [R406 (free base)] | 42129.8 | 55638.2 |  | 
COc1ccc(/C=C(\C#N)c2cccnc2)cc1OC [RG 13022] | 36154.5 | 2414.3 |  | 
O=C(NCc1cccc(O)c1)Nc1nc(-c2ccncc2)cs1 [RKI-1447] | 1722.0 | 7250.9 |  | 
CN1CCN(c2ccc(Nc3cc(-c4cccc(-n5ccc6cc(C7CC7)cc(F)c6c5=O)c4CO)cn(C)c3=O)nc2)CC1 [RN486] | 3432.0 | 25024.9 |  | 
Cc1cn(-c2cc(NC(=O)c3ccc(C)c(Nc4nccc(-c5cnccn5)n4)c3)cc(C(F)(F)F)c2)cn1 [Radotinib(IY-5511)] | 11726.8 | 29413.0 |  | 
CO[C@H]1C[C@@H]2CC[C@@H](C)[C@@](O)(O2)C(=O)C(=O)N2CCCC[C@H]2C(=O)O[C@H]([C@H](C)C[C@@H]2CC[C@@H](O)[C@H](OC)C2)CC(=O)[C@H](C)/C=C(\C)[C@@H](O)[C@@H](OC)C(=O)[C@H](C)C[C@H](C)/C=C/C=C/C=C/1C [Rapamycin (Sirolimus)] | 1745.1 | 58744.6 |  | 
CNC(=O)c1cc(Oc2ccc(NC(=O)Nc3ccc(Cl)c(C(F)(F)F)c3)c(F)c2)ccn1.Cl [Regorafenib hydrochloride] | 724.9 | 22021.0 |  | 
CNC(=O)c1cc(Oc2ccc(NC(=O)Nc3ccc(Cl)c(C(F)(F)F)c3)c(F)c2)ccn1 [Regorafenib] | 93.0 | 63322.3 |  | 
Oc1ccc(/C=C/c2cc(O)cc(O)c2)cc1 [Resveratrol] | 13503.5 | 6902.6 |  | 
c1nc2nc(Nc3ccc(N4CCOCC4)cc3)nc(NC3CCCCC3)c2[nH]1 [Reversine] |  |  | 27234.6 | 49415.3
CO[C@H]1C[C@@H]2CC[C@@H](C)[C@@](O)(O2)C(=O)C(=O)N2CCCC[C@H]2C(=O)O[C@H]([C@H](C)C[C@@H]2CC[C@@H](OP(C)(C)=O)[C@H](OC)C2)CC(=O)[C@H](C)/C=C(\C)[C@@H](O)[C@@H](OC)C(=O)[C@H](C)C[C@H](C)/C=C/C=C/C=C/1C [Ridaforolimus (Deforolimus, MK-8669)] | 23072.2 | 31512.5 |  | 
COc1cc(OC)c(/C=C/S(=O)(=O)Cc2ccc(OC)c(NCC(=O)O)c2)c(OC)c1 [Rigosertib (ON-01910,Estybon)] | 14175.0 | 4849.9 |  | 
O=C1NC(=NCc2cccs2)S/C1=C\c1ccc2ncccc2c1 [Ro 3306] | 2807.1 | 25048.4 |  | 
O=C(/C=C/c1ccc(O)c(O)c1)O[C@H](Cc1ccc(O)c(O)c1)C(=O)O [Rosmarinic acid] | 3864.4 | 42457.9 |  | 
C[C@@H]1COCCN1c1cc(=O)n2c(n1)N(Cc1cncc(Cl)c1)[C@H](C(F)(F)F)CC2 [SAR405] | 1587.9 | 23454.9 |  | 
CCn1c(N)c(C(=O)NC)c(=O)c2ccc(C#C[C@@](C)(O)COC)nc21 [SAR131675] | 44218.5 | 34484.3 |  | 
CN1C/C=C/CCOc2cccc(c2)-c2ccnc(n2)Nc2cccc(c2)C1 [SB1317] | 1210.9 | 26680.2 |  | 
Oc1ccc(-c2nc(-c3ccc(F)cc3)c(-c3ccncc3)[nH]2)cc1 [SB202190 (FHPI)] | 29217.1 | 9508.1 |  | 
Cc1cccc(-c2[nH]c(C(C)(C)C)nc2-c2ccc3nccnc3c2)n1 [SB525334] | 34680.3 | 27941.4 |  | 
